Laboratory results published in patent publication US7989447B2, “1,5 and 3,6-substituted indole compounds having NOS inhibitory activity” (NeurAxon, Inc., priority 2006, dated 2011).
Read-outs that look alike come from different tables or passages of the source.

Assays:
[1] = biological target: human neuronal constitutive NOS (nNOS) (Homo sapiens, UniProt P29475); assay: nNOS (Human) enzyme assay, radiometric conversion of [3H]L-arginine to [3H]L-citrulline; format: biochemical; conditions: for Ratio e/n: human eNOS / human nNOS
human neuronal constitutive NOS (nNOS), sequence (P29475 whole entry): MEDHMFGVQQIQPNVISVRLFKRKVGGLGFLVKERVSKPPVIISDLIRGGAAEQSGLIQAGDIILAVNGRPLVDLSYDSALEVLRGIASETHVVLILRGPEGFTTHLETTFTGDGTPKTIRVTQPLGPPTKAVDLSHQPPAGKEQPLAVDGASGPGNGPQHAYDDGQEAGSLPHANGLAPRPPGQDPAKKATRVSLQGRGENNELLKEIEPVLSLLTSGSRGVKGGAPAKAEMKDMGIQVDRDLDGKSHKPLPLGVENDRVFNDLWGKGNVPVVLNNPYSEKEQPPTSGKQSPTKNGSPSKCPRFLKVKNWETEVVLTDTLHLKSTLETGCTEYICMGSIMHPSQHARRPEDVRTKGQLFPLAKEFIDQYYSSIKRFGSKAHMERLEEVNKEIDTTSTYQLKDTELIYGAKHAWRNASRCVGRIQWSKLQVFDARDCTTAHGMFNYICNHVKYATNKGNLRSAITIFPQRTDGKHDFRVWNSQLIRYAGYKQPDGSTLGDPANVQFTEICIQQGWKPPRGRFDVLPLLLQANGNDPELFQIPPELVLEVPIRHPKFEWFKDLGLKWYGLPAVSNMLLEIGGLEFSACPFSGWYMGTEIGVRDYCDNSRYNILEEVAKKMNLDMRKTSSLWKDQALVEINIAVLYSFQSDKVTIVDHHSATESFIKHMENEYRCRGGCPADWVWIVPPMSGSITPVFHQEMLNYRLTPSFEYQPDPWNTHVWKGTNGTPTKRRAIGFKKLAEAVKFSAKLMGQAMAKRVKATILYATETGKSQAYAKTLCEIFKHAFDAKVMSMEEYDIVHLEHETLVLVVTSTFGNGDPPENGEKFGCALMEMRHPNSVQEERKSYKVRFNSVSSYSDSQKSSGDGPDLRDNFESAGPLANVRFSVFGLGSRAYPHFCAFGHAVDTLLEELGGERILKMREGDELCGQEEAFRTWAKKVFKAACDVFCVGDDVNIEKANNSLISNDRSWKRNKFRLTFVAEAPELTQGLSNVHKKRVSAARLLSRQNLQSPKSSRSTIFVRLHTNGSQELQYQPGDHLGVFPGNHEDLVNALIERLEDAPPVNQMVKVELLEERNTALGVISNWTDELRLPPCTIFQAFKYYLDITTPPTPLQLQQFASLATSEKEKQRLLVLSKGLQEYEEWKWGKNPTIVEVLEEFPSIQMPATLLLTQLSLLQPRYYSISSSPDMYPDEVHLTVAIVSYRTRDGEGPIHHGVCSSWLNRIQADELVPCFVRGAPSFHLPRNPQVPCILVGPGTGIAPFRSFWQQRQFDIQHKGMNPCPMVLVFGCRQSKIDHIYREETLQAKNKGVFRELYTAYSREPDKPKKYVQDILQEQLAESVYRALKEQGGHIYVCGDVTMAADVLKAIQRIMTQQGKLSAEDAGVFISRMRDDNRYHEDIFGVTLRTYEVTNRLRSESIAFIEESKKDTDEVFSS
Description: To measure enzyme inhibition, a 15 μL solution of a test substance was added to the enzyme assay solution, followed by a pre-incubation time of 15 min at RT. […] The total volume of the reaction mixture was 150 μL in every well. The reactions were carried out at 37° C. for 45 min. The reaction was stopped by adding 20 μL of ice-cold buffer containing 100 mM HEPES, 3 mM EGTA, 3 mM EDTA, pH=5.5. [^3H]L-citrulline was separated by DOWEX (ion-exchange resin DOWEX 50 W X 8-400, SIGMA) and the DOWEX was removed by spinning at 12,000 g for 10 min in the centrifuge. […] All assays were performed at least in duplicate. Standard deviations were 10% or less.

[2] = biological target: human endothelial constitutive NOS (eNOS) (Homo sapiens, UniProt P29474); assay: eNOS (Human) enzyme assay, radiometric conversion of [3H]L-arginine to [3H]L-citrulline; format: biochemical; conditions: recombinant human enzyme, 37° C., 45 min; read-out: Human eNOS
Description: (§1) Recombinant human inducible NOS (iNOS), human endothelial constitutive NOS (eNOS) or human neuronal constitutive NOS(nNOS) were produced in Baculovirus-infected Sf9 cells (ALEXIS). In a radiometric method, NO synthase activity was determined by measuring the conversion of [^3H]L-arginine to [^3H]L-citrulline. To measure iNOS, 10 μL of enzyme was added to 100 μL of 100 mM HEPES, pH=7,4, containing 1 mM CaCl2, 1 mM EDTA, 1 mM dithiotheitol, 1 μM FMN, 1 μM FAD, 10 μM tetrahydrobiopterin, 120 μM NADPH, and 100 nM CaM. To measure eNOS or nNOS, 10 μL of enzyme was added to 100 μL of 40 mM HEPES, pH=7.4, containing 2.4 mM CaCl2, 1 mM MgCl2, 1 mg/mL BSA, 1 mM EDTA, 1 mM dithiothreitol, 1 μM FMN, 1 μM FAD, 10 μM tetrahydrobiopterin, 1 mM NADPH, and 1.2 μM CaM.
(§2) To measure enzyme inhibition, a 15 μL solution of a test substance was added to the enzyme assay solution, followed by a pre-incubation time of 15 min at RT. The reaction was initiated by addition of 20 μL L-arginine containing 0.25 μCi of [^3H]arginine/mL and 24 μM L-arginine. The total volume of the reaction mixture was 150 μL in every well. The reactions were carried out at 37° C. for 45 min. The reaction was stopped by adding 20 μL of ice-cold buffer containing 100 mM HEPES, 3 mM EGTA, 3 mM EDTA, pH=5.5. [^3H]L-citrulline was separated by DOWEX (ion-exchange resin DOWEX 50 W X 8-400, SIGMA) and the DOWEX was removed by spinning at 12,000 g for 10 min in the centrifuge. An 70 μL aliquot of the supernatant was added to 100 μL of scintillation fluid and the samples were counted in a liquid scintillation counter (1450 Microbeta Jet, Wallac). […] All assays were performed at least in duplicate.

[3] = biological target: human inducible NOS (iNOS) (Homo sapiens, UniProt P35228); assay: iNOS (Human) enzyme assay, radiometric conversion of [3H]L-arginine to [3H]L-citrulline; format: biochemical; conditions: recombinant human enzyme, 37° C., 45 min
Description: as §1, §2

[4] = system: rats after L5/L6 spinal nerve ligation; assay: Chung Spinal Nerve Ligation (SNL) model of neuropathic pain, thermal hyperalgesia; format: in vivo, rat; conditions: one dose 10 or 60 mg/kg i.p.
Description: The efficacy of compound 107 for the treatment of neuropathic pain was assessed using standard animal models predictive of anti-hyperalgesic and anti-allodynic activity induced by a variety of methods.
The experimental designs for the Chung Spinal Nerve Ligation SNL Model assay for neuropathic pain are depicted in FIG. 1. Nerve ligation injury was performed according to the method described by Kim and Chung (Kim and Chung, Pain 50:355-363, 1992). This technique produces signs of neuropathic dysesthesias, including tactile allodynia, thermal hyperalgesia, and guarding of the affected paw. Rats were anesthetized with halothane and the vertebrae over the L4 to S2 region were exposed. The L5 and L6 spinal nerves were exposed, carefully isolated, and tightly ligated with 4-0 silk suture distal to the DRG. After ensuring homeostatic stability, the wounds were sutured, and the animals allowed to recover in individual cages. Sham-operated rats were prepared in an identical fashion except that the L5/L6 spinal nerves were not ligated. […] After a period of recovery following the surgical intervention, rats show enhanced sensitivity to painful and normally non-painful stimuli.

[5] = system: cardiogenic shock patients; conditions: randomized trial of 30 patients; reduced from 67%; cited from earlier work
migraine patients [6] = conditions: single i.v. administration; cited from earlier work
[7] = system: patients with persistent shock; conditions: up to 30 days, 11 patients with persistent shock; cited from earlier work
migraine patients [8] = conditions: open pilot study; cited from earlier work
[9] = recombinant human enzyme, 37° C., 45 min, read-out: Human nNOS

| SMILES | Ratio e/n [1] | IC50 [1, 9] [µM] | IC50 [2] [µM] | IC50 [3] [µM] | other results |
| --- | --- | --- | --- | --- | --- |
| CN1CCCC1CCn1c(Cc2ccc(OC(F)(F)F)cc2)cc2cc(NC(=N)c3cccs3)ccc21 (stereo not shown) [Compound 14, N-(1-(2-(1-methylpyrrolidin-2-yl)ethyl)-2-(4-(trifluoromethoxy)benzyl)-1H-indol-5-yl)thiophene-2-carboximidamide] | 4.90 | 0.31 | 1.52 | 93 |  |
| CN1CCCC1CCn1c(-c2ccc([N+](=O)[O-])cc2)cc2cc(NC(=N)c3cccs3)ccc21 (stereo not shown) [Compound 21, N-(1-(2-(1-methylpyrrolidin-2-yl)ethyl)-2-(4-nitrophenyl)-1H-indol-5-yl)thiophene-2-carboximidamide] |  | 1.28 | 13.2 | 52 |  |
| CN1CCCC(n2ccc3cc(NC(=N)c4cccs4)ccc32)CC1 (stereo not shown) [Compound 58, N-(1-(1-methylazepan-4-yl)-1H-indol-5-yl)thiophene-2-carboximidamide] | 93.49 | 0.12 | 11.5 | 7.6 |  |
| CN1CCCC1CCn1ccc2cc(NC(=N)N[N+](=O)[O-])ccc21 (stereo not shown) [Compound 59, 1-(1-(2-(1-methylpyrrolidin-2-yl)ethyl)-1H-indol-5-yl)-3-nitroguanidine] | 6.00 | 1.44 | 8.65 |  | Human iNOS (μM) [3]: Not Active |
| N=C(Nc1ccc2c(ccn2C2CN3CCC2CC3)c1)c1cccs1 (stereo not shown) [Compound 71, N-(1-(Quinuclidin-3-yl)-1H-indol-5-yl)thiophene-2-carboximidamide] | 32.79 | 0.36 | 12.1 | 29 |  |
| CN1C2CCC1CC(n1ccc3cc(NC(=N)c4cccs4)ccc31)C2 (stereo not shown) [Compound 86, N-(1-(8-methyl-8-azabicyclo[3.2.1]octan-3-yl)-1H-indol-5-yl)thiophene-2-carboximidamide] | 24.70 | 0.76 | 18.9 | 11 |  |
| CN1CC=C(c2c[nH]c3cc(NC(=N)c4cccs4)ccc23)CC1 [Compound 107, N-[3-(1-methyl-1,2,3,6-tetrahydro-pyridin-4-yl)-1H-indol-6-yl]-thiophene-2-carboxamidine] | 26.36 | 1.1 | 29 | 12 | antihyperalgesic effect (reversal of thermal hyperalgesia) [4]: clear antihyperalgesic effect |
| CN1CCC(c2c[nH]c3cc(NC(=N)c4cccs4)ccc23)CC1 [Compound 108, N-[3-(1-methyl-piperidin-4-yl)-1H-indol-6-yl]-thiophene-2-carboxamidine] | 23.94 | 0.71 | 17 | 9.3 |  |
| N=C(Nc1ccc2c(C3CN4CCC3CC4)c[nH]c2c1)c1cccs1 (stereo not shown) [Compound 112, N-(3-(quinuclidin-3-yl)-1H-indol-6-yl)thiophene-2-carboximidamide] | 27.78 |  | 31.4 | 0.4 | IC50 [1]: 1.13 µM |
| CCNC1CCC(c2c[nH]c3cc(NC(=N)c4cccs4)ccc23)CC1 (stereo not shown) [Compound 129] | 57.08 | 0.26 | 14.9 | 4.2 |  |
| CCNC1CC=C(c2c[nH]c3cc(NC(=N)c4cccs4)ccc23)CC1 (stereo not shown) [Compound 132, N-(3-(4-(Ethylamino)cyclohex-1-enyl)-1H-indol-6-yl)thiophene-2-carboximidamide] | 23.83 | 0.73 | 17.4 | 1.93 |  |
| CCCN[C@H]1CC[C@@H](c2c[nH]c3cc(NC(=N)c4cccs4)ccc32)CC1 [Compound 137, N-(3-((1s,4s)-4-(propylamino)cyclohexyl)-1H-indol-6-yl)thiophene-2-carboximidamide] | 27.02 | 0.2 | 5.54 | 8.26 |  |
| COC(=O)[C@@H](N)CCCNC(=N)N[N+](=O)[O-] [L-NAME] |  |  |  |  | patient mortality [5]: 27% |
| CN=C(N)NCCC[C@H](N)C(=O)O.Cl [L-NMMA, L-N^G methylarginine hydrochloride] |  |  |  |  | response rate (migraine patients [6]): 67%; survival rate [7]: 72% |
| C/C1=C2/[N-][C@H]([C@H](CC(N)=O)[C@@]2(C)CCC(=O)NC[C@@H](C)OP(=O)([O-])O[C@H]2[C@@H](O)[C@@H](n3cnc4cc(C)c(C)cc43)O[C@@H]2CO)[C@]2(C)N=C(/C(C)=C3N=C(/C=C4N=C1[C@@H](CCC(N)=O)C\4(C)C)[C@@H](CCC(N)=O)[C@]\3(C)CC(N)=O)[C@@H](CCC(N)=O)[C@]2(C)CC(N)=O.[Co+3].[OH-] [hydroxycobalamin] |  |  |  |  | patients with a 50% reduction in the frequency of migraine attack (migraine patients [8]): 53% |
